Experimental data: article PMC10016038, “Enhanced Endosomal Signaling and Desensitization of GLP-1R vs GIPR in Pancreatic Beta Cells” (Endocrinology, 2023)

Key:
[1] = tested on: GIPR-NanoLuc; test: KRAS-Venus bystander NanoBRET (plasma membrane), GIPR; format: cell-based; conditions: n = 5
Source text: GLP-1R-NanoLuc was generated in house by polymerase chain reaction (PCR) cloning of the NanoLuciferase sequence from pcDNA3.1-ccdB-NanoLuc (a gift from Prof. Mikko Taipale; Addgene plasmid # 87067) onto the C-terminus end of the SNAP-GLP-1R vector (CisBio), followed by site-directed mutagenesis of the GLP-1R stop codon. GIPR-NanoLuc was subsequently cloned in house by exchanging the GLP-1R for the GIPR in the GLP-1R-NanoLuc construct. KRAS- and Rab5-Venus plasmids were a gift from Prof. Kevin Pfleger, University of Western Australia. The INS-1 832/3 GLP-1R KO and GIPR KO cells were seeded in 12-well plates and co-transfected with 0.2 µg KRAS-Venus and 0.1 µg GLP-1R- or GIPR-NanoLuc, respectively, or 0.5 µg Rab5-Venus and 0.1 µg GLP-1R- or GIPR-NanoLuc, respectively.
All NanoBiT and NanoBRET readings were obtained in a Flexstation 3 plate reader. Briefly, 24 hours after transfection, cells were detached, resuspended in NanoGlo Live Cell Reagent (Promega) with furimazine (1:20 dilution) and seeded into white 96-well half-area plates. […] Readings were normalized to well baseline and then to average vehicle-induced signal to establish the agonist-induced effect. AUCs from response curves were calculated for each agonist concentration and fitted to four-parameter curves using Prism 9 (GraphPad).
Figure 2. Endosomal vs plasma membrane localization of GLP-1R compared with GIPR in beta cells. […] Data are mean ± SEM, compared by paired t tests or two-way ANOVA with Sidak's test; *P < .05.

[2] = tested on: calcium response in purified WT mouse islets; test: Calcium assay, WT mouse islets; format: cell-based; conditions: Cal-520 AM; 100 nM; n = 4
Protocol: Nondiabetic mice of both sexes were used for islet isolation. Briefly, pancreata were infused via the common bile duct with RPMI-1640 medium containing 1 mg/mL collagenase from Clostridium histolyticum (Nordmark Biochemicals), dissected, and incubated in a water bath at 37 °C for 10 minutes. Islets were subsequently washed and purified using a Histopaque gradient (Histopaque-1119, 11191, Sigma-Aldrich, and Histopaque-1083, 10831, Sigma-Aldrich). Isolated islets were allowed to recover overnight at 37 °C in 5% CO2 in RPMI-1640 supplemented with 10% FBS and 1% penicillin/streptomycin. […]
Imaging of INS-1 832/3 cells or whole-islet Ca^2+ dynamics was performed as follows: cells or Matrigel-encased islets from individual animals were loaded with the Ca^2+ responsive dye Cal-520 AM (AAT Bioquest), pre-incubated for 1 hour in KRBH G6, and imaged in MatTek glass bottom dishes every 6 second at 488 nm using a Nikon Eclipse Ti microscope with an ORCA-Flash 4.0 camera (Hamamatsu) and Metamorph software (Molecular Devices) while maintained at 37 °C on a heated stage. Raw fluorescence intensity traces from cell-occupied areas or islet ROIs were extracted using Fiji. Responses were plotted relative to the average fluorescence intensity during the 6 mM glucose baseline period, before agonist addition. […]

What does the source list for GIP(1-42)?
Plasma membrane retention of GIPR compared with GLP-1R ([1]; INS-1 832/3 KO cells): increased propensity for plasma membrane retention; Maximal internalization response (Emax), GIPR vs GLP-1R [1]: reduced maximal internalization responses; Potency (logEC50), GIPR vs GLP-1R [1]: no changes in potency; Calcium influx, GIP vs GLP-1, primary islets [2]: significant increase
